Data from patent US20240082221A1, “COMPOSITIONS AND METHODS FOR THE IDENTIFICATION OF COMPOUNDS THAT PROTECT AGAINST LIPOFUSCIN CYTOTOXICITY” (priority 2021, published 2024).
Where two headings read alike, the source gives them in different places.

Key:
[1] = tested on: human MLKL; assay: Western blot of Ser358 phospho-MLKL, phosphorylation and polymerization of MLKL; format: cell-based; conditions: non-reducing conditions, cells with A2E/ATRD
Method: Immunoblotting. Total cell lysates were extracted using RIPA lysis buffer (50 mM TrisHCl, Ph 8.0, 150 mM NaCl, 1% NP40, 0.5% Sodium Deoxycholate, 0.1% SDS, protease-phosphatase inhibitor) after the incubation of the specific sample group in a 48 well plate. Sonication or syringing (20 times) was done followed by centrifugation at 12,000×g for 10 mins and the supernatant was collected and stored in −80° C. Proten concentration from homogenates were assessed by Pierce Rapid Gold BCA protein assay kit (ThermoFisher Scientific, cat.no. A53225). Then 30 μg of protein was analyzed by standard SDS-PAGE gel. Samples were mixed 4:1 (v:v) with Nupage loading buffer with or without 8% 0-mercaptoethanol and heated for 10 min at 72° C. SDS-PAGE was done using 4-12% Nupage gel and buffer (Life, NP0335BOX). Next, SDS-PAGE gel was transferred to nitrocellulose membrane (Whatman, PROTAN BA83) overnight at 20V. The following day, 5% milk in TBS was used for 2 h blocking the membrane and then primary antibody was added in TBST (TBS, 0.1% Tween-20) for overnight at 4° C. Next day membranes were washed and incubated for 2 hours at room temperature with HRP conjugated secondary antibody (cat #G21234, Invitrogen) at 1:10,000 dilution. After 3 more washed membranes were probed with enhanced chemiluminescence (ECL) reagent and detected using an X-ray films for chemiluminescence image (GE healthcare, RPN2106). Scanning/imaging and quantitation of the image was done using silverfast 8 application software and Fiji Image J. Antibodies for Western blotting were list in FIG. 10.
For its phosphorylation, MLKL and its kinase need to be recruited into multiprotein complexes, known as necrosomes (FIG. 4O). Necrosomes are not well conserved among species and vary also with the nature of the stimuli that triggers their formation. […] Considering that phosphorylation of human MLKL at Ser358 (pMLKL), is a hallmark triggering event and marker of necroptosis, the Ser358-phosphorylation and polymerization status of MLKL in cells with LF was determined. […] A prerequisite for the assembly of these RIP kinases into necrosomes was their phosphorylation.

[2] = tested on: ARPE-19 cells
Method: Cell Viability Assay. […] 1× AlamarBlue solution prepared in OptiMEM was used to replace the media supernatant and the plate's fluorescence was determined at 555 nm excitation/585 nm emission with a SpectraMax M (Molecular Devices, CA, USA), after 1 h. […] The exact timing of appearance of far-red (DRAQ7=plasma membrane leakage) and blue (NUC405=caspase 3 activation) fluorescence signals was critical to differentiate apoptosis and necrosis from secondary events, such as membrane damage and generalized proteolytic activation during the late phase of apoptosis and necrosis, respectively.
Real time monitoring of necrotic and apoptotic cell-death. Cell-death assay to study Lipofuscin's dark toxicity was performed. 90% confluent ARPE-19 or hfRPE were incubated overnight in serum free media supplemented with indicated LB concentration. Viability was assessed at 24 hrs by AlamarBlue®, or microscopy with NUC405/DRAQ7. Real time monitoring of necrotic (red) and apoptotic (blue) cell-death was performed by automated fluorescence microscopy. The exact timing of appearance of far-red (DRAQ7=plasma membrane leakage) and blue (NUC405=caspase 3 activation) fluorescence signals was critical to differentiate apoptosis and necrosis from secondary events, such as membrane damage and generalized proteolytic activation during the late phase of apoptosis and necrosis, respectively.
Chemical inhibitors. Chemical inhibitors used in this study are described in FIG. 12.

[3] = tested on: pMLKL; assay: Fluorescence microscopy of pMLKL plasma membrane translocation in ARPE-19 monolayers; format: cell-based, Human; conditions: ARPE-19 with A2E or ATRD
Text: Chronic accumulation of polymeric pMLKL could account for progressive damage in pigmented retinas as they amass LF.

Row | Compound | effect on LF-induced phosphorylation and polymerization of MLKL [1] | protection against light-independent LF (A2E/ATRD) cytotoxicity, RPE survival [2] | effect on LF-induced pMLKL plasma membrane localization [3] | protection against light-independent LF (A2E/ATRD) cytotoxicity, RPE survival ([2]; ARPE-19, inhibitor pretreatment, A2E/ATRD 24 h, no light, AlamarBlue) | protection against light-independent LF (A2E/ATRD) cytotoxicity, RPE survival ([2]; ARPE-19, inhibitor pretreatment, A2E/ATRD 24 h, no light, AlamarBlue, listed as Nec-7)
1 | CC(C)(C)c1nc(-c2ccc(NC(=O)Nc3cccc(C(F)(F)F)c3)c3ccccc23)c2c(N)nccn12 [KIRA6] | prevents phosphorylation and polymerization of MLKL | sufficient to protect against necroptosis by LF | inhibition of pMLKL plasma membrane translocation |  | 
2 | N=C1S/C(=C\c2cn[nH]c2-c2ccc(F)cc2)C(=O)N1c1nccs1 [Nec7, Necrostatin 7] | reduced LF-induced phosphorylation and polymerization of MLKL |  | effectively reverted the pMLKL membrane localization pattern | highly protective | protects against necroptosis by lipofuscin
